# Laboratory results reported in publication PMC7982615, “Phase 1 study of telisotuzumab vedotin in Japanese patients with advanced solid tumors” (Cancer Medicine, 2021).
# Where two headings read alike, the source gives them in different places. Marks after values point to notes of the source that are not given here. Non-standard residues stand in square brackets, D forms with d. Residues, ends and D or L forms follow the SMILES beside them. *: point of attachment. Dolaproine = CO[C@@H]([C@@H]1CCCN1)[C@@H](C)C(=O)O; Dil = CC[C@H](C)[C@H](NC)[C@@H](CC(=O)O)OC; X1 = C[C@@H](N*)[C@@H](O)c1ccccc1; NMeV = CN[C@H](C(=O)O)C(C)C
# What was measured:
# [1] = Pharmacokinetics of teliso‐v conjugate and MMAE, noncompartmental; type: in vivo, human; conditions: for AUCtau, MMAE / Cmax, MMAE: geometric mean (%CV); for t1/2, MMAE: harmonic mean (min-max); for Tmax, MMAE: median (min-max)
# Procedure: PK samples were also collected on cycles 2 and 4 predose and approximately 30 minutes after the end of infusion on day 1. PK parameters such as peak concentration (Cmax), time to peak concentration, area under the concentration‐time curve (AUC), and terminal half‐life (t1/2) were determined using noncompartmental methods.
# [2] = system: MET exon 14‐mutated NSCLC; design: method as in earlier work; conditions: cited from earlier work
# [3] = system: CD30‐positive Hodgkin lymphoma or systemic anaplastic large cell lymphoma; design: method as in PMID 24814862; conditions: US and Japanese patients; cited from earlier work
# [4] = cycle 1, after teliso-v 2.4 mg/kg IV, n = 3
# [5] = cycle 1, after teliso-v 2.7 mg/kg IV, n = 6
compound,measurement,setting,value
"CC[C@H](C)[C@@H]([C@@H](CC(=O)N1CCC[C@H]1[C@H](OC)[C@@H](C)C(=O)N[C@H](C)[C@@H](O)c1ccccc1)OC)N(C)C(=O)[C@@H](NC(=O)[C@@H](NC)C(C)C)C(C)C [MMAE, monomethyl auristatin E] (H-[NMeV]V[Dil][Dolaproine]-X1)",t1/2,"[1]; N = 9, both dose levels",96 to 140 h
same,"AUCtau, MMAE",[1]; [4],535 (7) ng*h/mL
same,"Cmax, MMAE",[1]; [4],1.69 (10) ng/mL
same,"t1/2, MMAE",[1]; [4],5.80 (4.5–7.8) days
same,"Tmax, MMAE",[1]; [4],168.5 (72.5–168.5) h
same,"t1/2, MMAE","[1]; cycle 1, after teliso-v 2.7 mg/kg IV, N = 4",4.01 (3–5.6)^c days
same,"AUCtau, MMAE",[1]; [5],764 (78) ng*h/mL
same,"Cmax, MMAE",[1]; [5],2.80 (77) ng/mL
same,"Tmax, MMAE",[1]; [5],168.5 (72.5–168.5) h
same,"Plasma Cmax, preliminary geometric mean","[1]; first dose of teliso‐v, cycle 1, across 2.4 and 2.7 mg/kg",1.69 to 2.80 ng/mL
same,Accumulation in cycle 3,[1]; multiple dosing Q3 W,1.1–1.2 fold
CNC(=O)c1ccc(-c2cnc3ncc(Cc4ccc5ncccc5c4)n3n2)cc1F [capmatinib],ORR,[2]; one to two prior lines of treatment,39.1%
same,ORR,[2]; treatment‐naive patients,71.4%
brentuximab vedotin,Ethnic differences in PK,[3],no remarkable ethnic differences in PK were found
